Source: the supplement of paper PMC12463676, “Small-molecule dissolution of stress granules by redox modulation benefits ALS models” (Nature Chemical Biology, 2025)

How the values were obtained:
lipoamide = compound: NC(=O)CCCCC1CCSS1 [lipoamide]; test: thermal stability z-score vs DMSO; higher = more thermally stabilized by treatment; settings: HeLa, lipoamide concentration 100 µM
Protocol: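 Cellular thermal proteome profiling in HeLa cells. Cells were treated with 100 µM lipoamide for 1 h, with or without 1 mM arsenate for a further 1 h, then heated to ten temperatures (37-66.3 °C), and soluble protein was quantified by TMT mass spectrometry relative to 0.1% DMSO controls. The thermal stability score (sum of log2 fold changes minus the abundance score) was transformed to a z-score; mean of n = 3 experiments.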

potassium arsenate = compound: O=[As]([O-])(O)O.[K+] [potassium arsenate]; test: as above; settings: HeLa; arsenate concentration 1 mM
Protocol: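 Cellular thermal proteome profiling in HeLa cells treated with 1 mM arsenate for 1 h (DMSO pretreatment), heated to ten temperatures (37-66.3 °C). Soluble protein was quantified by TMT mass spectrometry relative to DMSO controls; the thermal stability score was transformed to a z-score; mean of n = 3 experiments.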

[1] = arsenate co-treatment: 1 mM arsenate 1 h
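Also: each temperature applied for 3 min, abundance score taken as mean log2 fold change at the two lowest temperatures, z-score obtained by mean subtraction and division by SD.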

Chain of UniProt Q9HB07 (Q9HB07 whole entry): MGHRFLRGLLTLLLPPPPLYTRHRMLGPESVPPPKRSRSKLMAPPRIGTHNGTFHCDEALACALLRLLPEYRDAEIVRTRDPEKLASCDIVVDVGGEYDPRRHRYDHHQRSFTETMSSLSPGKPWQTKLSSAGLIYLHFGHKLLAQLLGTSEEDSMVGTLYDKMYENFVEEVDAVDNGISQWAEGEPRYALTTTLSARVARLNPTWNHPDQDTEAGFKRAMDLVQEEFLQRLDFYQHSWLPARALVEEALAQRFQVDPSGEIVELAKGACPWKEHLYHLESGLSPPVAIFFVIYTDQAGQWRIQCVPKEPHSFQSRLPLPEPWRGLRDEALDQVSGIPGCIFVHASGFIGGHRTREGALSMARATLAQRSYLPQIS
Chain of UniProt Q9BRJ6 (Q9BRJ6 whole entry): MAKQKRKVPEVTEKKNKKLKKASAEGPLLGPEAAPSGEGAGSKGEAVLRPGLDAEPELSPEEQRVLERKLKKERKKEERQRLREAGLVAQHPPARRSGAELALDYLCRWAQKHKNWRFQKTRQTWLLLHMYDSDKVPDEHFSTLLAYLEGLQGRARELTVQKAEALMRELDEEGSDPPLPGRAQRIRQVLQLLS
Chain of UniProt Q9BUH6 (Q9BUH6 whole entry): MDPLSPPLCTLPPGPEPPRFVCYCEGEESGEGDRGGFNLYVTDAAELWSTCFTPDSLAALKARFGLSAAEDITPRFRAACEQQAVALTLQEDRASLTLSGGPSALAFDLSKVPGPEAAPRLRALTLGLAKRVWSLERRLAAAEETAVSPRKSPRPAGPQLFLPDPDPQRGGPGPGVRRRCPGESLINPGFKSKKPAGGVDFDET
Chain of UniProt Q9Y224 (Q9Y224 whole entry): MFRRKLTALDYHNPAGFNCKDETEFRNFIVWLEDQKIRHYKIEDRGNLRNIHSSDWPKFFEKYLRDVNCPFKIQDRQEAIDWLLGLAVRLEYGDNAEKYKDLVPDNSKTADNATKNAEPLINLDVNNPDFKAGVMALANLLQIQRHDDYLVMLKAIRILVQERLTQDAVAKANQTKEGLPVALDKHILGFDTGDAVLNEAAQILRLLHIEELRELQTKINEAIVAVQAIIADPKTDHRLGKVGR
Chain of UniProt Q9H6K1 (Q9H6K1 whole entry): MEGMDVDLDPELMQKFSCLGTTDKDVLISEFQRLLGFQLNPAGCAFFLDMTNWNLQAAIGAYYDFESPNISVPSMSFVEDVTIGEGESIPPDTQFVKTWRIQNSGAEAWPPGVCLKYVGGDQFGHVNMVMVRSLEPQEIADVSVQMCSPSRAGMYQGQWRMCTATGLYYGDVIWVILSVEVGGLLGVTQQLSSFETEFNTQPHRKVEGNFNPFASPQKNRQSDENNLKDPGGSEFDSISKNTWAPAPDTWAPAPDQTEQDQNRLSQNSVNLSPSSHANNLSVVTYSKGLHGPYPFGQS
Chain of UniProt Q6P1X6 (Q6P1X6 whole entry): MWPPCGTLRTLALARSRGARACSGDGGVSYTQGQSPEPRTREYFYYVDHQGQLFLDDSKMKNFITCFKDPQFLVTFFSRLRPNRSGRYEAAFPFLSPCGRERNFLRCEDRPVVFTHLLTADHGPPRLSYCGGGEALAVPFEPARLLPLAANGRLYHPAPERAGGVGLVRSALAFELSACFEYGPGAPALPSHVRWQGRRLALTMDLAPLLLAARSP
Chain of UniProt Q96GS4 (Q96GS4 whole entry): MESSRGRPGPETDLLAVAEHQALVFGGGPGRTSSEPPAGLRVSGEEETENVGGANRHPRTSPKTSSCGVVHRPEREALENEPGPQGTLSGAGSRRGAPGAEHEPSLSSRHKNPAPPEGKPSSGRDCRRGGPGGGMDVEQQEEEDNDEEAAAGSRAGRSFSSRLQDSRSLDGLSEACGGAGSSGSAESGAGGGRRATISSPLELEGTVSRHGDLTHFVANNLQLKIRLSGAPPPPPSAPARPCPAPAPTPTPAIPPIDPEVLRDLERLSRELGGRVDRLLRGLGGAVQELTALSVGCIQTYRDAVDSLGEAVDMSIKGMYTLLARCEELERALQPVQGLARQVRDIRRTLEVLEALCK
Chain of UniProt Q8IXQ3 (Q8IXQ3 whole entry): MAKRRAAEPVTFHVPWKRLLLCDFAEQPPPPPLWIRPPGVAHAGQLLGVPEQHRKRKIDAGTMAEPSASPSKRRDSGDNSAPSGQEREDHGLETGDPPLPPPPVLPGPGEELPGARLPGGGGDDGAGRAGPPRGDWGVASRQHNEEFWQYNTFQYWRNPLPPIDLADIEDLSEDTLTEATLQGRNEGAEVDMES
Chain of UniProt Q96C57 (Q96C57 whole entry): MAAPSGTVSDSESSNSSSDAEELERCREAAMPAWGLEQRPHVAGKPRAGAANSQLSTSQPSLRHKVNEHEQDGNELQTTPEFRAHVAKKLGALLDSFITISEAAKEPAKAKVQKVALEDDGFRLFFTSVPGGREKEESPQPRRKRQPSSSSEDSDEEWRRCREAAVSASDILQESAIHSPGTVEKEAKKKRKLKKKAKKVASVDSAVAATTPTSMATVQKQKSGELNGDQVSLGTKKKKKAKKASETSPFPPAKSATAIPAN
Chain of UniProt Q9BSJ5 (Q9BSJ5 whole entry): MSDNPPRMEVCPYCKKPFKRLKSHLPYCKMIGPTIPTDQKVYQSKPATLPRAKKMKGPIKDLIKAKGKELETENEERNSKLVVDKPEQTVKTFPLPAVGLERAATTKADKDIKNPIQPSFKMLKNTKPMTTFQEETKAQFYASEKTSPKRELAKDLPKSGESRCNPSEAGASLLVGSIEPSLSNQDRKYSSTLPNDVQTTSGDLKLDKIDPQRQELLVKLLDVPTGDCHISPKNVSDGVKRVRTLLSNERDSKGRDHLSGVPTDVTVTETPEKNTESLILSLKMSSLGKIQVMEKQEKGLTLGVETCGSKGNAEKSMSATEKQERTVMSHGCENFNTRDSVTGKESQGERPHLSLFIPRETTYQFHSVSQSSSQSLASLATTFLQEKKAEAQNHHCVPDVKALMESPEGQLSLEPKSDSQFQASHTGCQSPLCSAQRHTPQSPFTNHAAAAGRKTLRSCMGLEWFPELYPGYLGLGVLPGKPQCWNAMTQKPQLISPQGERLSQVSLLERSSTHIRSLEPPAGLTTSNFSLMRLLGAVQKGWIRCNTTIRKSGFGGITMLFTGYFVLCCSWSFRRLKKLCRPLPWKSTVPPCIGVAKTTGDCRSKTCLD
Chain of UniProt Q96NL8 (Q96NL8 whole entry): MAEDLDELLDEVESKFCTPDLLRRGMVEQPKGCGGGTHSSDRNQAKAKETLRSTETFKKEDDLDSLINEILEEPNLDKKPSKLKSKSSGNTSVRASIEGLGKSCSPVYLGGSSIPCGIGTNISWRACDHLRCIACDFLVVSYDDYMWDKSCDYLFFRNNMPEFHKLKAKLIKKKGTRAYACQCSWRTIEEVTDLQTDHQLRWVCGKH
Chain of UniProt Q49AR2 (Q49AR2 whole entry): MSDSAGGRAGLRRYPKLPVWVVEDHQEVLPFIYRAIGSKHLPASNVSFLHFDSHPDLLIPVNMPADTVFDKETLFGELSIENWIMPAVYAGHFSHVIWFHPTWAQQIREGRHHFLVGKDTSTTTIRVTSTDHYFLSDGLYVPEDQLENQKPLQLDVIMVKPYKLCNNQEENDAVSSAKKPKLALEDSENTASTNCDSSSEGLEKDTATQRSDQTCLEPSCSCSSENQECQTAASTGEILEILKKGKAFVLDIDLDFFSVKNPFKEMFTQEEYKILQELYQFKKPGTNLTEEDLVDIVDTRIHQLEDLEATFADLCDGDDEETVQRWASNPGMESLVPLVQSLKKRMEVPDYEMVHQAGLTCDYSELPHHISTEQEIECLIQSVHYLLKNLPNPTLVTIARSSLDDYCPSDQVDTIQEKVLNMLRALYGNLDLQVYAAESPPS
Chain of UniProt Q5T280 (Q5T280 whole entry): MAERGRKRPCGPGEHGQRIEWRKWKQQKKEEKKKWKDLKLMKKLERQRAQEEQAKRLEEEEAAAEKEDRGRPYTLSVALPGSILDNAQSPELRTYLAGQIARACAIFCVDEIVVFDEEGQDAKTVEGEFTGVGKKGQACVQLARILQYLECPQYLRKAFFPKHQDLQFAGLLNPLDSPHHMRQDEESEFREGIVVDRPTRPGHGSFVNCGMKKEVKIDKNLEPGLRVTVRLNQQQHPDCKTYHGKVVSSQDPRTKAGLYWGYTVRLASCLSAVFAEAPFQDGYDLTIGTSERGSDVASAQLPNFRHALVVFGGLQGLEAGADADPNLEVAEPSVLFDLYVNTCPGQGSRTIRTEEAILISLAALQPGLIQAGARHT
Chain of UniProt Q96MD7 (Q96MD7 whole entry): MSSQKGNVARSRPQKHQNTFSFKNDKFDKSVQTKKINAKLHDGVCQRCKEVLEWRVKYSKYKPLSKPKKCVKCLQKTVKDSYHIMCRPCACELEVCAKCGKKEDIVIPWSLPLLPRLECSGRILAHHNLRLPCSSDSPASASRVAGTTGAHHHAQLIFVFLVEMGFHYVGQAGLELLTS
Chain of UniProt Q9HAS0 (Q9HAS0 whole entry): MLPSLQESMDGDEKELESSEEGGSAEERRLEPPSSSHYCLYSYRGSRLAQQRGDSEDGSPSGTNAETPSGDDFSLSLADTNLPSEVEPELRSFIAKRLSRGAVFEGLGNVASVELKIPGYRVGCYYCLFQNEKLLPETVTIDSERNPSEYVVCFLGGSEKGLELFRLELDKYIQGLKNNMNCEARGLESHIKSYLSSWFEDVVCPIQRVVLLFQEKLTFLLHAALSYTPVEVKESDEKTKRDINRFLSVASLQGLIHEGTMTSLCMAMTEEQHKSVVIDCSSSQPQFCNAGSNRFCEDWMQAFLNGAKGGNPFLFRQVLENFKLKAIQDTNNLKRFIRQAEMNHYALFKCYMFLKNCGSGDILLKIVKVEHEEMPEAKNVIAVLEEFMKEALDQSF
Chain of UniProt Q9H7E9 (Q9H7E9 whole entry): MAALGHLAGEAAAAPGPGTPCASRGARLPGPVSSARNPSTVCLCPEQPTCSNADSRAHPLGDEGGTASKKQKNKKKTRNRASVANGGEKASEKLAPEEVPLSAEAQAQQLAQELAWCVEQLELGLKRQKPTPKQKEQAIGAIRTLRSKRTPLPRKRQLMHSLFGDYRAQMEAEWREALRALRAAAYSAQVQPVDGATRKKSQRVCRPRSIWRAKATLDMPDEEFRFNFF

Target	thermal stability z-score (lipoamide; [1])	thermal stability z-score (lipoamide; arsenate co-treatment: none)	thermal stability z-score (potassium arsenate)
C4BPB (UniProt P20851)	-5.06	-5.39	0.18
C5ORF22 (UniProt Q49AR2)	-0.259	0.324	1.13
C5ORF51 (UniProt A6NDU8)	-1	-0.695	-0.796
C6ORF106 (UniProt Q9H6K1)	-0.69	-0.401	0.242
C7ORF50 (UniProt Q9BRJ6)	-0.995	-0.353	-0.593
C8ORF33 (UniProt Q9H7E9)	0.833	-0.384	1.19
C8ORF37 (UniProt Q96NL8)	0.385	0.235	0.161
C8ORF59 (UniProt Q8N0T1)	0.481	0.508	-0.38
C8ORF82 (UniProt Q6P1X6)	0.229	-0.151	-0.319
C9ORF40 (UniProt Q8IXQ3)	-0.129	0.33	0.0372
C9ORF64 (UniProt Q5T6V5)	-0.191	0.121	-0.254
C9ORF78 (UniProt Q9NZ63)	0.058	0.278	0.106
C9ORF85 (UniProt Q96MD7)	0.0672	1.62	0.132
C9ORF114 (UniProt Q5T280)	0.288	0.265	-0.288
C9ORF142 (UniProt Q9BUH6)	-0.55	-0.635	-0.706
C10ORF76 (UniProt Q5T2E6)	-0.9	0.306	0.613
C11ORF31|SELH	0.115	0.162	-0.153
C11ORF54 (UniProt Q9H0W9)	2.36	3.02	0.829

Target	thermal stability z-score (lipoamide; [1])	thermal stability z-score (lipoamide; arsenate co-treatment: none)	thermal stability z-score (potassium arsenate)
C11ORF68 (UniProt Q9H3H3)	-0.438	-0.551	0.538
C11ORF73 (UniProt Q53FT3)	0.0228	0.0059	-0.162
C11ORF98 (UniProt E9PRG8)	-0.688	-0.534	-1.91
C12ORF10 (UniProt Q9HB07)	-0.0259	-1.16	0.0961
C12ORF29 (UniProt Q8N999)	0.423	-0.117	-1.5
C12ORF43 (UniProt Q96C57)	0.941	-0.0235	-1.08
C12ORF45 (UniProt Q8N5I9)	0.42	0.511	0.591
C14ORF166 (UniProt Q9Y224)	0.126	0.251	-0.994
C15ORF38|ARPIN	-0.167	0.382	0.206
C15ORF40 (UniProt Q8WUR7)	0.334	-0.344	-1.19
C16ORF13 (UniProt Q96S19)	0.306	0.154	0.536
C16ORF58 (UniProt Q96GQ5)	-0.446	-0.183	-0.192
C16ORF62 (UniProt Q7Z3J2)	0.411	0.213	0.119
C17ORF59 (UniProt Q96GS4)	0.136	-0.131	-0.163
C17ORF62 (UniProt Q9BQA9)	0.898	0.761	1.37
C17ORF75 (UniProt Q9HAS0)	0.0162	-0.0686	-0.0267
C17ORF80 (UniProt Q9BSJ5)	-1.48	-1.08	-0.529
